What all share (type): cell-based
Experiment [1] concerns the target T1, 17β-hydroxysteroid dehydrogenase type 1 (17β-HSD type 1) (Homo sapiens, UniProt P14061).
T1 construct: expressed in transfected cells; host or cells: MCF-7
T1 sequence (P14061 1-328): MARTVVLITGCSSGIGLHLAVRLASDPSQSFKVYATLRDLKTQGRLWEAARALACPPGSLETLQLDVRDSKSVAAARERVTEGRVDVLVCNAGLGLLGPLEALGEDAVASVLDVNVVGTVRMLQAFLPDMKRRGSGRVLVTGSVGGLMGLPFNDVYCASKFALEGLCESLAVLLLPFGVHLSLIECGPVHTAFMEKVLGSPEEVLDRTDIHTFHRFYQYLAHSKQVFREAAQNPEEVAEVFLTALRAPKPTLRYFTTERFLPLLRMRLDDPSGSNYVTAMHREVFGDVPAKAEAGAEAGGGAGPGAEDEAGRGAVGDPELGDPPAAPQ
In words: Inhibition of 17β-HSD type 1 in MCF-7 cells stably expressing the isoenzyme (tritium labeled estrone conversion, HPLC). To be noted: MCF-7 cells expressing 17β-HSD type 1, 2 nM tritium labeled estrone; for inhibition at 1 µM / inhibition at 10 µM: MCF7; for inhibition at 1 µM: read-out: % Inhibition HSD1 1 μM; for inhibition at 10 µM: read-out: % Inhibition HSD1 10 μM. The text has this: (§1) Biological Testing Materials and Methods 1. Inhibition of the 17β-hydroxysteroid dehydrocienase type 1, type 2 and type 3 enzyme
(§2) The compounds were screened in respect of 17β-HSD enzyme activity in vitro on established MCF-7 cell lines, each stably expressing one of the respective 17β-HSD isoenzymes. The interconversion of substrate by each isoenzyme and the 17β-HSD inhibiting activity of chemical compounds in these cell lines were detected by HPLC system.
(§3) Varying amounts of the test compounds were incubated in the growth medium of the 17β-HSD expressing cells together tritium labeled substrate (2 nM estrone for 17β-HSD type 1; 2 nM estradiol for 17β-HSD type 2; and 2 nM androstenedione for 17β-HSD type 3). The medium samples were removed after exact incubation time and the reaction is stopped by trichloroacetic acid (TCA). The samples were analyzed by HPLC-coupled flow scintillation analysis.
(§4) For each enzyme type, the HSD-inhibiting activity of an individual test compound was calculated by comparing the conversion of a control sample without any test compound (referred to as “Negative Control”) to the (reduced) conversion of the test sample containing the particular compound to be tested (referred to as “Test Sample”).
(§5) Two concentrations of each compound were used. The number of the compound refers to the numbers indicated in the Experimental Section.

Experiment [2] deals with T2, 17β-hydroxysteroid dehydrogenase type 3 (17β-HSD type 3) (Homo sapiens, UniProt P37058).
T2 construct: expressed in transfected cells; host or cells: MCF-7
T2 sequence (P37058 1-310): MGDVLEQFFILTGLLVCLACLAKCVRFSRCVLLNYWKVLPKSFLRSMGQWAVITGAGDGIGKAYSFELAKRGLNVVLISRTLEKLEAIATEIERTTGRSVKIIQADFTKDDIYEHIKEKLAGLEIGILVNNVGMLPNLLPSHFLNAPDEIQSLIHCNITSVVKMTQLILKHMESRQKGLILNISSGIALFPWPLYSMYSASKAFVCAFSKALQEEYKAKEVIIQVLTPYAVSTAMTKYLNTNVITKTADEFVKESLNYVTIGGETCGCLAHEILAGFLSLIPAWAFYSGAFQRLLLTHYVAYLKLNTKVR
The experiment can be described thus: Inhibition of 17β-HSD type 3 in MCF-7 cells stably expressing the isoenzyme (tritium labeled androstenedione conversion, HPLC). Conditions: MCF-7 cells expressing 17β-HSD type 3, 2 nM tritium labeled androstenedione; for inhibition at 1 µM / inhibition at 10 µM: MCF7; for inhibition at 1 µM: read-out: % Inhibition HSD3 1 μM; for inhibition at 10 µM: read-out: % Inhibition HSD3 10 μM.
From the text: as §1, §2, §3, §4, §5

The target of experiment [3] is T3, 17β-hydroxysteroid dehydrogenase type 2 (17β-HSD type 2) (Homo sapiens, UniProt P37059).
T3 construct: expressed in transfected cells; host or cells: MCF-7
T3 sequence (P37059 1-387): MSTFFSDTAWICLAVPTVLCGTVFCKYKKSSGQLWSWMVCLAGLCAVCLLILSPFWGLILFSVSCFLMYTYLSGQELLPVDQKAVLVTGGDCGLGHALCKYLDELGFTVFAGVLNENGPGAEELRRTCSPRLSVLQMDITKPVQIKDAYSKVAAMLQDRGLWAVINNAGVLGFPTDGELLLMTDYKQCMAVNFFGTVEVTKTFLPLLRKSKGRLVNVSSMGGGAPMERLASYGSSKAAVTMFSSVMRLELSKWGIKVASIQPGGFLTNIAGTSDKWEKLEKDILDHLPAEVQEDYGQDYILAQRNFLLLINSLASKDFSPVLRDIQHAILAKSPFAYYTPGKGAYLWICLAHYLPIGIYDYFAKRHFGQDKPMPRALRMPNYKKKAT
In words: Inhibition of 17β-HSD type 2 in MCF-7 cells stably expressing the isoenzyme (tritium labeled estradiol conversion, HPLC). To be noted: MCF-7 cells expressing 17β-HSD type 2, 2 nM tritium labeled estradiol; for inhibition at 1 µM / inhibition at 10 µM: MCF7; for inhibition at 1 µM: read-out: % Inhibition HSD2 1 μM; for inhibition at 10 µM: read-out: % Inhibition HSD2 10 μM.
From the text: as §1, §2, §3, §4, §5

13 compounds from US7524853B2 (Solvay Pharmaceuticals B.V., priority 2003, dated 2009) can be followed below.

Broadly, the inhibition is the relative decrease from the control value, in per cent.

Turning to `CCCc1nc2sc3c(c2c(=O)n1Cc1ccc(Br)o1)CCC(Br)(Br)C3=O` [No. 104, 7,7-Dibromo-3-(5-bromofuran-2-ylmethyl)-2-propyl-6,7-dihydro-3H,5H-benzo[4,5]thieno[2,3-d]pyrimidine-4,8-dione], the inhibition at 1 µM in experiment [1] (1 μM test compound) was 20.2%; in experiment [2] (1 μM test compound), -5%; in experiment [3] (1 μM test compound), 26.6%. The inhibition at 10 µM in experiment [1] (10 μM test compound) is 42.6%; in experiment [2] (10 μM test compound), 51.4%; in experiment [3] (10 μM test compound) it was 47.9%.

In the case of `CCCc1nc2sc3c(O)cccc3c2c(=O)n1Cc1ccc(Br)o1` [No. 105, 3-(5-Bromofuran-2-ylmethyl)-8-hydroxy-2-propyl-3H-benzo[4,5]thieno[2,3-d]pyrimidin-4-one], the inhibition at 1 µM in experiment [1] (1 μM test compound) came out at 29.8%; in experiment [2] (1 μM test compound) it was 17.7%; in experiment [3] (1 μM test compound) it was 50.7%. The inhibition at 10 µM in experiment [1] (10 μM test compound) was 61.2%; in experiment [2] (10 μM test compound), 67.3%; in experiment [3] (10 μM test compound) it was 85.9%.

For `Cc1nc2sc3c(c2c(=O)n1-c1ccccc1)CCC(Br)C3=O` (centres unmarked) [No. 44, 7-Bromo-2-methyl-3-phenyl-6,7-dihydro-3H,5H-benzo[4,5]thieno[2,3-d]pyrimidine-4,8-dione], the figures for the inhibition at 1 µM in experiment [1] (1 μM test compound), in experiment [2] (1 μM test compound) and in experiment [3] (1 μM test compound) were 10.5%, -22.5% and 2.2%, respectively. For the same compound, the inhibition at 10 µM in experiment [1] (10 μM test compound) came out at 55.6%; in experiment [2] (10 μM test compound) it was 26.3%; in experiment [3] (10 μM test compound), 16.3%.

As for `COCCn1c(-c2cccs2)nc2sc3c(O)c(Br)ccc3c2c1=O` [No. 148, 7-Bromo-8-hydroxy-3-(2-methoxyethyl)-2-thiophen-2-yl-3H-benzo[4,5]thieno[2,3-d]pyrimidin-4-one], the inhibition at 1 µM in experiment [1] (1 μM test compound) is 27%; in experiment [2] (1 μM test compound) it was 53.7%; in experiment [3] (1 μM test compound) it was 29.1%. Further, the inhibition at 10 µM worked out at 53.2% in experiment [1] (10 μM test compound), 97.9% in experiment [2] (10 μM test compound) and 42% in experiment [3] (10 μM test compound).

`Cc1nc2sc3c(c2c(=O)n1-c1ccccc1)CCC(Br)(Br)C3=O` [No. 45, 7,7-Dibromo-2-methyl-3-phenyl-6,7-dihydro-3H,5H-benzo[4,5]thieno[2,3-d]pyrimidine-4,8-dione]: the inhibition at 1 µM was -7.7% in experiment [1] (1 μM test compound), -2.2% in experiment [2] (1 μM test compound) and 3.5% in experiment [3] (1 μM test compound). For the same compound, the inhibition at 10 µM was -18.3% in experiment [1] (10 μM test compound), 4.1% in experiment [2] (10 μM test compound) and 6.5% in experiment [3] (10 μM test compound).

Regarding `CCSc1c(C=O)ccc2c1sc1nc(-c3ccc(OC)cc3)n(Cc3ccccc3)c(=O)c12` [No. 18, 3-Benzyl-8-ethylsulfanyl-2-(p-methoxyphenyl)-4-oxo-3,4-dihydro-benzo[4,5]thieno[2,3-d]pyrimidine-7-carbaldehyde], the results for the inhibition at 1 µM in experiment [1] (1 μM test compound), in experiment [2] (1 μM test compound) and in experiment [3] (1 μM test compound) were 12.1%, 66.1% and 0%, respectively. The inhibition at 10 µM in experiment [1] (10 μM test compound) is 25.9%; in experiment [2] (10 μM test compound) it was 100%; in experiment [3] (10 μM test compound), 15.1%.

As for `CC(C)=Cc1nc2sc3c(O)cccc3c2c(=O)n1CCc1cccs1` [No. 648], the “% Inhibition HSD1 1 μM” value in experiment [1] (1 μM test compound) is 18.0%. Also, the “% Inhibition HSD1 10 μM” value in experiment [1] (10 μM test compound) is 24.6%. Also, in experiment [2] (1 μM test compound), the “% Inhibition HSD3 1 μM” value came to 17.7%. For the same compound, the “% Inhibition HSD3 10 μM” value in experiment [2] (10 μM test compound) is listed as 70.1%. For the same compound, the “% Inhibition HSD2 1 μM” value in experiment [3] (1 μM test compound) is on record as 16.0%. Besides, the “% Inhibition HSD2 10 μM” value in experiment [3] (10 μM test compound) was determined as 40.2%.

As to `COCc1nc2sc3c(c2c(=O)n1Cc1ccccc1)CCCC3` [No. 27, 3-Benzyl-2-methoxymethyl-5,6,7,8-tetrahydro-3H-benzo[4,5]thieno[2,3-d]pyrimidin-4-one], the inhibition at 1 µM in experiment [1] (1 μM test compound) was 11.2%; in experiment [2] (1 μM test compound) it was -14.4%; in experiment [3] (1 μM test compound), 8.5%. The results for the inhibition at 10 µM in experiment [1] (10 μM test compound), in experiment [2] (10 μM test compound) and in experiment [3] (10 μM test compound) were 32.3%, 12.2% and 7.2%, respectively.

For the compound `O=C1c2sc3nc(-c4ccccc4)n(Cc4ccccc4)c(=O)c3c2CCC1(Br)Br` [No. 59, 3-Benzyl-7,7-dibromo-2-phenyl-6,7-dihydro-3H,5H-benzo[4,5]thieno[2,3-d]pyrimidine-4,8-dione], the inhibition at 1 µM was found to be 24% in experiment [1] (1 μM test compound), 17.6% in experiment [2] (1 μM test compound) and 36.7% in experiment [3] (1 μM test compound). For the same compound, the inhibition at 10 µM was 20.8% in experiment [1] (10 μM test compound), 31.7% in experiment [2] (10 μM test compound) and 40% in experiment [3] (10 μM test compound).

Regarding `CCC(C)Cn1c(-c2cc(OC)c(OC)c(OC)c2)nc2sc3c(c2c1=O)CCCC3=O` (centres unmarked) [No. 126, 3-(2-Methylbutyl)-2-(3,4,5-trimethoxyphenyl)-6,7-dihydro-3H,5H-benzo[4,5]thieno[2,3-d]pyrimidine-4,8-dione], the figures for the inhibition at 1 µM in experiment [1] (1 μM test compound), in experiment [2] (1 μM test compound) and in experiment [3] (1 μM test compound) were 27.4%, 8% and 6.6%, respectively. In addition, the inhibition at 10 µM in experiment [1] (10 μM test compound) was 59.3%; in experiment [2] (10 μM test compound) it was 36.3%; in experiment [3] (10 μM test compound), -9%.

On to `COCCn1c(-c2cc(OC)c(OC)c(OC)c2Br)nc2sc3c(O)cccc3c2c1=O` [No. 112, 2-(2-Bromo-3,4,5-trimethoxyphenyl)-8-hydroxy-3-(2-methoxyethyl)-3H-benzo[4,5]thieno[2,3-d]pyrimidin-4-one], for which the values for the inhibition at 1 µM in experiment [1] (1 μM test compound), in experiment [2] (1 μM test compound) and in experiment [3] (1 μM test compound) were 28.3%, 7% and 14.6%, respectively. Besides, the results for the inhibition at 10 µM in experiment [1] (10 μM test compound), in experiment [2] (10 μM test compound) and in experiment [3] (10 μM test compound) were 54.4%, 49.4% and 46.3%, respectively.

With `COc1cc(-c2nc3sc4c(O)cccc4c3c(=O)n2CC(C)C)cc(OC)c1OC` [No. 151, 8-Hydroxy-3-isobutyl-2-(3,4,5-trimethoxyphenyl)-3H-benzo[4,5]thieno[2,3-d]pyrimidin-4-one], the inhibition at 1 µM in experiment [1] (1 μM test compound) came out at 21.2%; in experiment [3] (1 μM test compound), 14.6%. Besides, the inhibition at 10 µM in experiment [1] (10 μM test compound) was determined as 52.7%; in experiment [3] (10 μM test compound), 22.1%.

With `COc1cc(-c2nc3sc4ccccc4c3c(=O)n2Cc2ccccc2)c(Br)c(OC)c1OC` [No. 51, 3-benzyl-2-(2-bromo-3,4,5-trimethoxyphenyl)-3H-benzo[4,5]thieno[2,3-d]pyrimidin-4-one], the inhibition at 1 µM in experiment [1] (1 μM test compound) was determined as 9.9%; in experiment [3] (1 μM test compound), 16.6%. Moreover, the inhibition at 10 µM was determined as 9.1% in experiment [1] (10 μM test compound) and 30.7% in experiment [3] (10 μM test compound).
